# Tests used:
# Aβ1-42 [1] = target: T1, Aβ1-42 (Homo sapiens, UniProt P05067); experiment: biochemical; settings: self-mediated Aβ42 aggregation without copper, inhibitor 80 µM, ThT fluorescence; for inhibition at 80 µM: read-out: Aβ aggregation inhibition, Self-Aβ aggr
# T1 construct: Amyloid β-peptide (1–42), Aβ1-42, was purchased from GeneCust; purchased GeneCust
# Description: (§1) The Aβ amyloid plaques are one of the main hallmarks of AD and they result from over production and aggregation of β-amyloid peptide, which can accumulate outside the neurons, by self-mediated or Cu^2+-induced process, interfering with the synaptic impairment, neurotransmission and memory. Therefore, anti-AD drugs have been designed aimed to disrupt and disaggregate the Aβ’s fibrils into monomers, obtaining non-toxic forms of β-secretase’s products. To assess the effect of these new hybrids in the inhibition of amyloid peptide aggregation, a selection of the compounds was in vitro assayed, based on the thioflavin T (ThT) method. Indeed ThT is a histochemical dye able to create ionic or hydrophobic interactions with the peptide β–sheets, the predominant secondary structure of the amyloid fibrils in aqueous solutions[36]. This binding interactions can be monitored by fluorimetry since the presence of ThT-fibrils increases the absorbance and the emission of the ThT dye, and induces red shifts on the absorbance (from 385 to 446 nm) and emission peaks (from 445 to 485 nm)[14]. All the measurements were performed after incubation of the self-mediated and Cu^2+-induced Aβ aggregates in the presence/absence of the herein studied compounds. […]. […] This may be rationalised on the basis of their copper chelating capacity, as previously shown by other metal chelating compounds[14]^,[38]. Furthermore, despite some exceptions (e.g. 20 and 24), the increase in linker length and the chloro TAC substitution induce some small negative effects in the inhibition of Aβ self-aggregation.
# (§2) For the study of the β-amyloid (Aβ) aggregation, the ThT fluorescence assay was performed using a Varian Cary Eclipse fluorimeter at the following wavelengths: excitation (446 nm) and emission (485 nm). Amyloid β-peptide (1–42), Aβ1-42, was purchased from GeneCust as a lyophilised powder stored at −20 °C. TEM assays were performed with a Hitachi H8100 transmission electron microscope with a LaB6 filament (200 kV, 10000–20000 × magnification) at MicroLab/IST.
# (§3) Among all the methods to measure the aggregation of Aβ1-42, the assay based on Thioflavin T (ThT) is the standard procedure based on the fluorescence of this dye[49]^,[50]. This test is performed with Aβ1-42 peptide previously prepared by dissolving it in 1,1,1,3,3,3–hexafluoro-2-propanol (HFIP), an organic solvent useful to solubilise and monomerize the β–sheet protein aggregates and reserve them in the fridge. Films are re-dissolved in an Eppendorf tube with a fresh solution of a mixture of CH3CN/Na2CO3/NaOH, to have a stable stock solution, and afterwards, added to an optimised fibrillation phosphate buffer. The samples were prepared using MeOH (1 mg/mL) as solvent, followed by incubation in a water bath for 24 h at 37 °C with gentle shaking. After incubation, the samples were added to a 96-well plate (BD Falcon) with 180 µL of 5 µM ThT in 50 mM glycine-NaOH (pH 8.5) buffer. Blank samples were prepared for each concentration in a similar way, devoid of peptide. After 5-min incubation with the dye, the ThT fluorescence was measured at 446 nm (excitation) and 485 nm (emission).
# SH-SY5Y cells [2] = experiment: Neuroprotection from Aβ42-induced toxicity, MTT reduction assay; assay type: cell-based, human; settings: Aβ42 2.5 μM 24 h; 1 h pre-incubation + 24 h co-incubation; 18, 19, 20, 23 at 20 µM; 21, 24 at 35 µM
# Description: Figure 8. Neuroprotective effect of TAC-BF hybrids from Aβ42-induced toxicity on SH-SY5Y cells. Cells were treated with Aβ42 peptide (2.5 μM) for 24 h in the absence or in the presence of the compounds (1 h pre-incubation + 24 h co-incubation). Evaluation of cell viability was performed using the MTT reduction assay. […] (compounds: 18, 19, 20 and 23 – 20 µM; 21, 24 – 35 µM).
# (§4) SH-SY5Y human neuroblastoma cell line (ATCC-CRL-2266) is grown in Dulbecco’s modified Eagle’s medium (DMEM), and were obtained from Gibco-Invitrogen (Life Technologies Ltd, UK) with 10% heat inactivated foetal calf serum, containing 50 U/mL penicillin and 50 µg/mL streptomycin, under a humidified atmosphere of 95% air- 5% CO2 at 37 °C. Cells were plated at 0.12 × 10^6 cells/mL for cell viability assay. The tested compounds (18, 19, 20, 21, 23 and 24) were dissolved in DMSO at a concentration of 50 mM and aliquots were stored at −20 °C. We performed a dose-response screening (from 10 µM to 40 µM) in order to choose the highest non-toxic concentration. […]
# (§5) Cell viability was determined by the MTT (3–(4,5-dimethylthiazol-2-yl)-2,5-diphenyltetrazolium bromide) reduction test. […] The absorbance was measured at 570 nm[51]. Cell reduction ability was expressed as a percentage of untreated control cells.
# SH-SY5Y cells [3] = experiment: Neuroprotection against ascorbate/iron (Asc/Fe) toxicity, MTT reduction assay; assay type: cell-based, human; settings: Asc/Fe 5 mM/500 μM 24 h after 1 h compound; 18, 19, 20, 23 at 20 µM; 21, 24 at 35 µM
# Description: Figure 9. Neuroprotective effect of TAC-BF conjugates against L-Ascorbic Acid (AscH(-))/Ferrous Sulphate (Fe) toxicity on SH-SY5Y cells. Cells were treated with Asc/Fe (5 mM/500 μM, respectively) for 24 h, after treatment for 1 h in the absence or in the presence of the compounds. Evaluation of cell viability was performed by using MTT reduction assay. […] (compounds: 18, 19, 20 and 23 – 20 µM; 21, 24 – 35 µM).
# as §4, §5
# Aβ1-42 [4] = target: T1, Aβ1-42; experiment: Inhibition of Cu2+-induced Aβ1-42 aggregation, thioflavin T fluorescence; assay type: biochemical; settings: Aβ42 aggregation with copper (40 µM), inhibitor 80 µM, ThT fluorescence; for inhibition at 80 µM: read-out: Aβ aggregation inhibition, Cu-ind Aβ aggr
# Description: as §1, §2
# as §3, with “The samples were prepared using MeOH (1 mg/mL) as solvent, followed by incubation in a water bath for 24 h at 37 °C with gentle shaking. After incubation, the samples were added to a 96-well plate (BD Falcon) with 180 µL of 5 µM ThT in 50 mM glycine-NaOH (pH 8.5) buffer. Blank samples were prepared for each concentration in a similar way, devoid of peptide.” left out
# T1 sequence (P05067 672-713 limits assumed): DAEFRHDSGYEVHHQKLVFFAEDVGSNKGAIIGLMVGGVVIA
SMILES,inhibition at 80 µM (Aβ1-42 [1]),Neuroprotective effect from Aβ42-induced toxicity (cell viability) (SH-SY5Y cells [2]),Neuroprotective effect against Asc/Fe toxicity (cell viability) (SH-SY5Y cells [3]),inhibition at 80 µM (Aβ1-42 [4]),"Aβ aggregation inhibition, Self-Aβ aggr (Aβ1-42 [1])","Aβ aggregation inhibition, Cu-ind Aβ aggr (Aβ1-42 [4])"
"COc1cccc2cc(C(=O)NCCCNc3c4c(nc5cc(Cl)ccc35)CCCC4)oc12 [Compound 19, N-(3-((6-chloro-1,2,3,4-tetrahydroacridin-9-yl)amino)propyl)-7-methoxybenzofuran-2-carboxamide]",57.8%,prevented that Aβ-induced cell toxicity,appeared to best achieve cell protection from Asc/Fe-induce oxidative stress,,,
"COc1cccc2cc(C(=O)NCCCCNc3c4c(nc5cc(Cl)ccc35)CCCC4)oc12 [Compound 20, N-(4-((6-chloro-1,2,3,4-tetrahydroacridin-9-yl)amino)butyl)-7-methoxybenzofuran-2-carboxamide]",64.4%,,,,,
"O=C(NCCCNc1c2c(nc3ccccc13)CCCC2)c1cc2cccc(O)c2o1 [Compound 21, 7-Hydroxy-N-(3-((1,2,3,4-tetrahydroacridin-9-yl)amino)propyl)benzofuran-2-carboxamide]",44%,,lowest capacity for in cell radical scavenging,50.1%,,
"O=C(NCCCNc1c2c(nc3cc(Cl)ccc13)CCCC2)c1cc2cccc(O)c2o1 [Compound 23, N-(3-((6-chloro-1,2,3,4-tetrahydroacridin-9-yl)amino)propyl)-7-hydroxybenzofuran-2-carboxamide]",,prevented that Aβ-induced cell toxicity,,,31.5%,52.5%
"O=C(NCCCCNc1c2c(nc3cc(Cl)ccc13)CCCC2)c1cc2cccc(O)c2o1 [Compound 24, N-(4-((6-chloro-1,2,3,4-tetrahydroacridin-9-yl)amino)butyl)-7-hydroxybenzofuran-2-carboxamide]",43.4%,,,53.4%,,
